# Experimental data reported in patent US10253002B2, “Compounds and methods of treating infections” (Neoculi Pty Ltd., priority 2013, dated 2019).
# Where “and” joins values, the source holds several entries; their conditions need not be identical. Equal entries are not always repeated.
# Columns and labels:
# Experiment in all cases: Broth microdilution MIC, Example 7 (NCL812 and analogues)
# [1] = test system: VRE; type: cell-based, Enterococcus spp.
# In short: (§1)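 Isolates were tested in duplicate, with a third run if replicates differed by more than one two-fold dilution; inoculum purity was checked on sheep blood agar.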
# [2] = test system: Escherichia coli; type: cell-based; conditions: 24 hours
# [3] = test system: Pseudomonas aeruginosa; type: cell-based; conditions: 24 hours
# [4] = test system: MRSA; type: cell-based, Staphylococcus aureus; conditions: for activity against MRSA among analogues: MIC testing, two MRSA strains
# In short: as §1
# [5] = isolate VRE 1, 24 hours, 1st and 2nd replicate rows
# [6] = isolate VRE 2, 24 hours, 1st and 2nd replicate rows
# [7] = isolate MRSA 1, 24 hours, 1st and 2nd replicate rows
# [8] = isolate MRSA 2, 24 hours, 1st and 2nd replicate rows
# [9] = VRE 1, 24 hours, duplicate lines per compound
# [10] = VRE 2, 24 hours, duplicate lines per compound
# [11] = E. coli, duplicate lines per compound
# [12] = P. aeruginosa, duplicate lines per compound
# [13] = MRSA 1, 24 hours, duplicate lines per compound
# [14] = MRSA 2, 24 hours, duplicate lines per compound
Structure (SMILES),"MIC (μg/ml) at 24 hours, VRE 1 [1, 5]","MIC (μg/ml) at 24 hours, VRE 2 [1, 6]","MIC (μg/ml) at 24 hours, E. coli ([2]; 1st and 2nd replicate rows)","MIC (μg/ml) at 24 hours, P. aeruginosa ([3]; 1st and 2nd replicate rows)","MIC (μg/ml) at 24 hours, MRSA 1 [4, 7]","MIC (μg/ml) at 24 hours, MRSA 2 [4, 8]","MIC (μg/ml) at 24 hours, VRE 1 [1, 9]","MIC (μg/ml) at 24 hours, VRE 2 [1, 10]","MIC (μg/ml) at 24 hours, E. coli [2, 11]","MIC (μg/ml) at 24 hours, P. aeruginosa [3, 12]","MIC (μg/ml) at 24 hours, MRSA 1 [4, 13]","MIC (μg/ml) at 24 hours, MRSA 2 [4, 14]",further results
Cl.N=C(N/N=C/c1ccccc1C(F)(F)F)N/N=C/c1ccccc1C(F)(F)F [NCL036],>128 µg/mL,>128 µg/mL,>128 µg/mL,>128 µg/mL,>128 µg/mL,>128 µg/mL,–,–,–,–,–,–,–
Cl.N=C(NN=Cc1ccc(SC(F)(F)F)cc1)NN=Cc1ccc(SC(F)(F)F)cc1 [NCL 166],–,–,–,–,–,–,8 µg/mL,128 µg/mL,>128 µg/mL,>128 µg/mL,32 µg/mL,64 µg/mL,–
Cc1ccccc1/C=N/NC(=N)N.Cl [NCL045],>128 µg/mL,>128 µg/mL,>128 µg/mL,>128 µg/mL,>128 µg/mL,>128 µg/mL,–,–,–,–,–,–,–
Cl.N=C(NN=Cc1ccc(O)cc1)NN=Cc1ccc(O)cc1 [NCL 151],–,–,–,–,–,–,128 µg/mL,64 µg/mL,>128 µg/mL,>128 µg/mL,64 µg/mL,64 µg/mL,–
Nc1nc(N/N=C/c2ccc(O)cc2)nc(N/N=C/c2ccc(O)cc2)n1 [NCL211],–,–,–,–,–,–,–,–,–,–,–,–,"MIC (μg/ml) at 24 hours, VRE 1 ([1]; VRE 1, 24 hours): >128 µg/mL; MIC (μg/ml) at 24 hours, VRE 2 ([1]; VRE 2, 24 hours): >128 µg/mL; MIC (μg/ml) at 24 hours, E. coli ([2]; E. coli): >128 µg/mL; MIC (μg/ml) at 24 hours, P. aeruginosa ([3]; P. aeruginosa): >128 µg/mL; MIC (μg/ml) at 24 hours, MRSA 1 ([4]; MRSA 1, 24 hours): >128 µg/mL; MIC (μg/ml) at 24 hours, MRSA 2 ([4]; MRSA 2, 24 hours): >128 µg/mL"
O=C(N/N=C/c1ccccc1C(F)(F)F)N/N=C/c1ccccc1C(F)(F)F [NCL013],>128 µg/mL,>128 µg/mL,>128 µg/mL,>128 µg/mL,>128 µg/mL,>128 µg/mL,–,–,–,–,–,–,–
CN(C)c1ccc(/C=N/Nc2cc(N/N=C/c3ccc(N(C)C)cc3)nc(N)n2)cc1 [NCL201],–,–,–,–,–,–,–,–,–,–,–,–,"MIC (μg/ml) at 24 hours, VRE 1 ([1]; VRE 1, 24 hours): >128 µg/mL; MIC (μg/ml) at 24 hours, VRE 2 ([1]; VRE 2, 24 hours): >128 µg/mL; MIC (μg/ml) at 24 hours, E. coli ([2]; E. coli): >128 µg/mL; MIC (μg/ml) at 24 hours, P. aeruginosa ([3]; P. aeruginosa): >128 µg/mL; activity against MRSA among analogues [4]: greatest activity; MIC (μg/ml) at 24 hours, MRSA 1 ([4]; MRSA 1, 24 hours): 32 µg/mL and 64 µg/mL; MIC (μg/ml) at 24 hours, MRSA 2 ([4]; MRSA 2, 24 hours): 16 µg/mL and 32 µg/mL"
Fc1cccc(/C=N/NC(=S)N/N=C/c2cccc(F)c2)c1 [NCL066],>128 µg/mL,>128 µg/mL,>128 µg/mL,>128 µg/mL,>128 µg/mL,>128 µg/mL,–,–,–,–,–,–,–
C/C(=N\NC(=N)N/N=C/c1ccc(C(F)(F)F)cc1)c1ccc(C(F)(F)F)cc1.Cl [NCL075],–,–,–,–,–,–,>128 µg/mL,>128 µg/mL,>128 µg/mL,>128 µg/mL,>128 µg/mL,>128 µg/mL,–
Cl.N=C(NN=Cc1cc(O)c(O)cc1O)NN=Cc1cc(O)c(O)cc1O [NCL104],–,–,–,–,–,–,128 µg/mL,>128 µg/mL,>128 µg/mL,>128 µg/mL,64 µg/mL,64 µg/mL,activity against MRSA among analogues [4]: greatest activity
Cl.N=C(NN=Cc1ccc(O)c(O)c1)NN=Cc1ccc(O)c(O)c1 [NCL111],–,–,–,–,–,–,64 µg/mL,>128 µg/mL,>128 µg/mL,>128 µg/mL,64 µg/mL,64 µg/mL,"activity against VRE among analogues ([1]; MIC testing, two VRE strains): greatest activity; activity against MRSA among analogues [4]: greatest activity"
CCCC(=NNC(=N)NN=C(CCC)c1ccc(Cl)cc1)c1ccc(Cl)cc1.Cl [NCL 156],–,–,–,–,–,–,>128 µg/mL,>128 µg/mL,>128 µg/mL,>128 µg/mL,>128 µg/mL,>128 µg/mL,–
